Data as given in patent US10604494B2, “Acylated N-(1 ,2,5-oxadiazol-3-yl)-, N-(1,3,4-oxadiazol-2-yl)-, N-(tetrazol-5-yl)- and N-(triazol-5-yl)-aryl carboxamides, and use thereof as herbicides” (Bayer CropScience Aktiengesellschaft, priority 2015, dated 2020).

Tests used:
Type in all cases: in vivo
Abutilon theophrasti [1] = assay: Pre-emergence herbicidal action against harmful plants; conditions: 504 h, application rate 320 g/ha, scored visually after 3 weeks vs untreated controls, 100% = plants have died, 0% = like control plants, read-out: efficacy (herbicidal activity in percent) against Abutilon theophrasti
Text: (§1) 1. Pre-Emergence Herbicidal Action Against Harmful Plants Seeds of monocotyledonous and dicotyledonous weed plants and crop plants are laid out in sandy loam in wood-fiber pots and covered with soil. The compounds of the invention, formulated in the form of wettable powders (WP) or as emulsion concentrates (EC), are then applied to the surface of the covering soil in the form of an aqueous suspension or emulsion at a water application rate equating to 600 to 800 I/ha, with addition of 0.2% wetting agent. After the treatment, the pots are placed in a greenhouse and kept under good growth conditions for the trial plants. The damage to the test plants is scored visually after a test period of 3 weeks by comparison with untreated controls (herbicidal activity in percent (%): 100% activity=the plants have died, 0% activity=like control plants). In this case, for example, compound Nos. 1-086, 1-028, 1-206, 1-447, 1-448, 1-449, 1-454, 1-458, 1-470, 1-471, 1-472, 1-477, 1-487, 2-477, 2-480, 2-500, 3-143, 3-475, 3-491, 4-188, 4-495, 4-430, 4-496, 13-001, 13-031 and 13-032, at an application rate of 320 g/ha, each show at least 80% efficacy against Abutilon theophrasti and Veronica persica.

Veronica persica [2] = assay: as above; conditions: 504 h, application rate 320 g/ha, scored visually after 3 weeks vs untreated controls, 100% = plants have died, 0% = like control plants, read-out: efficacy (herbicidal activity in percent) against Veronica persica
Text: as §1

Abutilon theophrasti [3] = assay: Post-emergence herbicidal action against harmful plants; conditions: 504 h, one-leaf stage, application rate 80 g/ha, assessed visually after about 3 weeks vs untreated controls, 100% = plants have died, 0% = like control plants, read-out: efficacy (herbicidal action in percent) against Abutilon theophrasti
Method: (§2) 2. Post-Emergence Herbicidal Action Against Harmful Plants Seeds of monocotyledonous and dicotyledonous weed and crop plants are laid out in sandy loam soil in wood-fiber pots, covered with soil and cultivated in a greenhouse under good growth conditions. 2 to 3 weeks after sowing, the test plants are treated at the one-leaf stage. The compounds of the invention, formulated in the form of wettable powders (WP) or as emulsion concentrates (EC), are then sprayed onto the green parts of the plants in the form of an aqueous suspension or emulsion at a water application rate equating to 600 to 800 I/ha, with addition of 0.2% wetting agent. After the test plants have been left to stand in the greenhouse under optimal growth conditions for about 3 weeks, the action of the preparations is assessed visually in comparison to untreated controls (herbicidal action in percent (%): 100% activity=the plants have died, 0% activity=like control plants). In this case, for example, compound Nos. 1-028, 1-085, 1-086, 1-206, 1-447, 1-448, 1-449, 1-453, 1-457, 1-460, 1-470, 1-471, 1-472, 1-487, 2-500, 3-143, 3-146, 3-487, 3-491, 3-492, 4-144, 4-188, 13-001, 13-031 and 13-032, at an application rate of 80 g/ha, each show at least 80% efficacy against Abutilon theophrasti and Veronica persica.

Veronica persica [4] = assay: as above; conditions: 504 h, one-leaf stage, application rate 80 g/ha, assessed visually after about 3 weeks vs untreated controls, 100% = plants have died, 0% = like control plants, read-out: efficacy (herbicidal action in percent) against Veronica persica
Method: as §2

CC(=O)N(C(=O)c1ccc(C(F)(F)F)cc1S(C)(=O)=O)c1nnnn1C [13-001, 2-(methylsulfonyl)-4-trifluoromethyl-N-acetyl-N-(1-methyltetrazol-5-yl)benzamide]
≥ 80%: pest or weed control at 320 g/ha (Abutilon theophrasti [1]) | pest or weed control at 320 g/ha (Veronica persica [2]) | pest or weed control at 80 g/ha (Abutilon theophrasti [3]) | pest or weed control at 80 g/ha (Veronica persica [4])

CNc1c(C(F)(F)F)ccc(C(=O)N(C(=O)c2ccc(C(F)(F)F)c(NC)c2C)c2nnnn2C)c1C [1-449]
≥ 80%: pest or weed control at 320 g/ha (Abutilon theophrasti [1]) | pest or weed control at 320 g/ha (Veronica persica [2]) | pest or weed control at 80 g/ha (Abutilon theophrasti [3]) | pest or weed control at 80 g/ha (Veronica persica [4])

CCOC(=O)c1c(SC)ccc(C(=O)N(C(=O)c2ccc(SC)c(C(=O)OCC)c2C)c2nnnn2C)c1C [1-453, 3-(ethoxycarbonyl)-2-methyl-4-(methylsulfanyl)-N-(3-(ethoxycarbonyl)-2-methyl-4-(methylsulfanyl)benzoyl)-N-(1-methyltetrazol-5-yl)benzamide]
≥ 80%: pest or weed control at 80 g/ha (Abutilon theophrasti [3]) | pest or weed control at 80 g/ha (Veronica persica [4])

CC[S+]([O-])c1c(S(C)(=O)=O)ccc(C(=O)N(C(=O)c2ccc(S(C)(=O)=O)c([S+]([O-])CC)c2C)c2nonc2C)c1C (centres unmarked) [4-188]
≥ 80%: pest or weed control at 320 g/ha (Abutilon theophrasti [1]) | pest or weed control at 320 g/ha (Veronica persica [2]) | pest or weed control at 80 g/ha (Abutilon theophrasti [3]) | pest or weed control at 80 g/ha (Veronica persica [4])

CSc1cc(C)cc(C(=O)N(C(=O)c2cc(C)cc(SC)c2C)c2nnnn2C)c1C [1-460]
≥ 80%: pest or weed control at 80 g/ha (Abutilon theophrasti [3]) | pest or weed control at 80 g/ha (Veronica persica [4])

CSc1c(N(C)C)ccc(C(=O)N(C(=O)c2ccc(N(C)C)c(SC)c2C)c2nnnn2C)c1C [1-454]
≥ 80%: pest or weed control at 320 g/ha (Abutilon theophrasti [1]) | pest or weed control at 320 g/ha (Veronica persica [2])

CCOc1c(C(=O)N(C(=O)c2ccc(C(F)(F)F)c(S(C)(=O)=O)c2OCC)c2nnnn2C)ccc(C(F)(F)F)c1S(C)(=O)=O [1-472]
≥ 80%: pest or weed control at 320 g/ha (Abutilon theophrasti [1]) | pest or weed control at 320 g/ha (Veronica persica [2]) | pest or weed control at 80 g/ha (Abutilon theophrasti [3]) | pest or weed control at 80 g/ha (Veronica persica [4])

CCOc1c(C(=O)N(C(=O)c2ccc(C(F)(F)F)c(SC)c2OCC)c2nnnn2C)ccc(C(F)(F)F)c1SC [1-471]
≥ 80%: pest or weed control at 320 g/ha (Abutilon theophrasti [1]) | pest or weed control at 320 g/ha (Veronica persica [2]) | pest or weed control at 80 g/ha (Abutilon theophrasti [3]) | pest or weed control at 80 g/ha (Veronica persica [4])

CC(C)c1c(C(=O)N(C(=O)c2ccc(C(F)(F)F)c(S(C)(=O)=O)c2C(C)C)c2nnnn2C)ccc(C(F)(F)F)c1S(C)(=O)=O [1-206]
≥ 80%: pest or weed control at 320 g/ha (Abutilon theophrasti [1]) | pest or weed control at 320 g/ha (Veronica persica [2]) | pest or weed control at 80 g/ha (Abutilon theophrasti [3]) | pest or weed control at 80 g/ha (Veronica persica [4])

CSc1c(OCC(F)(F)F)ccc(C(=O)N(C(=O)c2ccc(OCC(F)(F)F)c(SC)c2C)c2nnnn2C)c1C [1-458]
≥ 80%: pest or weed control at 320 g/ha (Abutilon theophrasti [1]) | pest or weed control at 320 g/ha (Veronica persica [2])

Cc1c(C(=O)N(C(=O)c2ccc(C(F)(F)F)c(N)c2C)c2nnnn2C)ccc(C(F)(F)F)c1N [1-447]
≥ 80%: pest or weed control at 320 g/ha (Abutilon theophrasti [1]) | pest or weed control at 320 g/ha (Veronica persica [2]) | pest or weed control at 80 g/ha (Abutilon theophrasti [3]) | pest or weed control at 80 g/ha (Veronica persica [4])

Cc1nonc1N(C(=O)c1ccc(C(F)(F)F)c([S+](C)[O-])c1C)C(=O)c1ccc(C(F)(F)F)c([S+](C)[O-])c1C (centres unmarked) [4-144]
≥ 80%: pest or weed control at 80 g/ha (Abutilon theophrasti [3]) | pest or weed control at 80 g/ha (Veronica persica [4])

CCOc1ccc(C(=O)N(C(=O)c2ccc(OCC)c(SC)c2C)c2nnnn2C)c(C)c1SC [1-457]
≥ 80%: pest or weed control at 80 g/ha (Abutilon theophrasti [3]) | pest or weed control at 80 g/ha (Veronica persica [4])

Cc1c(C(=O)N(C(=O)c2ccc(C(F)(F)F)c(N(C)C)c2C)c2nnnn2C)ccc(C(F)(F)F)c1N(C)C [1-448]
≥ 80%: pest or weed control at 320 g/ha (Abutilon theophrasti [1]) | pest or weed control at 320 g/ha (Veronica persica [2]) | pest or weed control at 80 g/ha (Abutilon theophrasti [3]) | pest or weed control at 80 g/ha (Veronica persica [4])
